# Legend:
# DHODH = DHODH (Homo sapiens (Human), UniProt Q02127); experiment: DHODH activity assay (coupled enzyme assay, DCIP reduction, absorbance at 610 nm); assay type: biochemical; settings: for inhibition at 10 µM / inh @ 10 uM hDHODH (%): compound at 10 uM; for inhibition at 10 µM: read-out: inh @ 10 uM hDHODH (%)
# Protocol: The DHODH activity assay is a coupled enzyme assay in which oxidation of DHO and subsequent reduction of ubiquinone are stoichiometrically equivalent to the reduction of DCIP ([…]). The reduction of DCIP is accompanied by a loss of absorbance at 610 nm.
# Buffer Preparation: 50 mM tris HCl, 150 mM KCl, and pH 8.0, 0.8% triton.
# 5 μL of Dimethyl sulfoxide or a compound of formula I in DMSO solution was added to the wells of a 96 well plate. Compounds of formula I were measured at 10 μM.
# Protein along with buffer was added, so that the total volume including the DMSO was 87 μL. Compound and protein were incubated for half an hour at room temperature after mixing. 5 μL of 20 mM solution of L-Dihydroorotic acid, 5 μL of 2 mM solution of Decylubiquinone and 3 μL of 2 mM solution of 2,6-Dichloroindophenol sodium salt hydrate were added to the above solution (total assay volume 100 μL). The mixture was stirred for 2 min and absorbance was recorded at every 10 min at 610 nanometers.
# Percent Inhibition is Calculated as Follows
# Positive control contains DMSO, buffer, enzyme and substrates
# No Enzyme reaction contains DMSO, buffer and substrates
# IC50 determination: • A 2 mM DMSO stock of the compound of formula I to be examined was prepared. ⅓rd dilutions were made as follows:
# 5 μL of each stock of compound of formula I (solution indicated in column 4 of table) was used for each 100 μL assay. Therefore, 5 μL of the 2 mM stock provided 100 μL of 100 μM solution of compound of formula I, when made up with buffer, protein and substrate. See also: Ulrich et al. (2001) Eur. J. Biochem. 268, 1861-1868.
# Jurkat cells = experiment: Measurement of cell proliferation (Jurkat cell), XTT assay; assay type: cell-based; settings: for inhibition at 1 µM: read-out: % inh Jurkat_cells @ 1 uM (%); for EC50: XTT cell viability
# Protocol: See also Roehm, N et al [1991] An improved colorimetric assay for cell proliferation and viability utilizing the tetrazolium salt XTT. J. Immunol. Methods 142:257-265.
# Culture Jurkat cells in T-25 flasks at a density of 0.2×10^6/ml 2-3 days before the day of experiment set up.
# Centrifuge Jurkat T-cell suspension at 1200 rpm for 10 minutes and resuspend cells again in fresh RPMI medium with 10% FBS.
# Count the cells and dilute suspension to a density of 2×10^6 cells/ml. Seed 50 μL of this suspension in each well of a 96 well plate (100,000 cells per well). Keep the edges of the plate empty to avoid evaporation.
# Serially dilute DMSO stocks of compounds to get different concentrations for an EC50 curve. 50 μL of compound diluted in media (2× concentration required in well) is added to each well. DMSO concentration should be kept constant at 0.25-0.5% for all wells.
# Typically, for all compounds with IC50<1 μM, compound concentration can start at 10 μM followed by half log dilutions for a total of 8-10 concentrations. Each concentration has to be tested in triplicate.
# Include controls such as cells without compound (with same DMSO concentration as compound wells), and media control
# Incubate the 96 well plate in a CO2 incubator at 37° C. for 72 hrs before determining cell viability using XTT assay
# XTT assay: to each well, add 50 μL of 1 mg/ml XTT solution with 20 μl of PMS/mL. Read the plates after 2 hours at 465 nm using the spectrophotometer. XTT reading for media without cells is used as background reading.
# Calculate % cell viability assuming that the cells without compound are 100% viable.
# Plot % cell viability as a function of concentration and determine EC50 by using software such as Graph Pad Prism to fit the curve.
# [1] = Homo sapiens, Jurkat, compound at 1 uM
# DHODH, sequence (Q02127 whole entry): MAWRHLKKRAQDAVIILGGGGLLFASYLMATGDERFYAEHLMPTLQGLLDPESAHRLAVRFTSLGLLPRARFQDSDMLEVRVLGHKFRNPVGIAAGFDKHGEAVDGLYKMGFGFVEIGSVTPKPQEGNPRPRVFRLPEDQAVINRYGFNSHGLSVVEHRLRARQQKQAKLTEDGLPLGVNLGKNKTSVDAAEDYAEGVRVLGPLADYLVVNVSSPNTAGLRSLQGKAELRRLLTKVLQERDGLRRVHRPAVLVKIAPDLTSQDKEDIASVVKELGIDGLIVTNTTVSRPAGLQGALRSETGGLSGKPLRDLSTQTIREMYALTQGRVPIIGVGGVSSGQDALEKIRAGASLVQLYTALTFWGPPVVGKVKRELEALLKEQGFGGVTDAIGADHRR
SMILES,IC50 (DHODH),inhibition at 10 µM (DHODH),inhibition at 1 µM (Jurkat cells; [1]),also measured
Cc1cc(C(=O)O)c2nc(-c3c(F)c(F)c(-c4ccc(F)cc4)c(F)c3F)[nH]c2c1 [I134],118 nM,88.1%,77.9%,–
Cc1cc(C(=O)O)c2nc(-c3ccc(-c4ccc(OCCN5CCCC5)cc4)cc3)[nH]c2c1 [I151],–,67.9%,16%,–
Cc1cc(-c2nnc(O)o2)c2nc(-c3c(F)c(F)c(-c4ccccc4)c(F)c3F)[nH]c2c1 [I159],–,32.3%,13.4%,–
O=C(O)c1cccc2nc(-c3c(F)c(F)c(-c4ccccc4OCc4ccccc4)c(F)c3F)[nH]c12 [I101],707 nM,82.2%,60.1%,–
Cc1cc(C(=O)O)c2nc(-c3ccc(-c4ccc(OCCCN5CCCCC5)cc4)cc3)[nH]c2c1 [I88],1630 nM,82.9%,40.3%,–
O=C(O)c1cc(F)cc2nc(-c3ccc4[nH]ccc4c3)[nH]c12 [I36],–,16.1%,7.7%,–
Cc1cc(C(N)=O)c2nc(-c3c(F)c(F)c(-c4ccccc4)c(F)c3F)[nH]c2c1 [I102],446 nM,87.9%,64.2%,–
Cc1cc(C(=O)O)c2[nH]c(-c3ccc(Oc4ccccc4)cc3)nc2c1 [I67],3410 nM,74.2%,29.3%,–
Cc1cc(C(=O)O)c2nc(-c3ccc(-c4ccccc4)cc3)[nH]c2c1 [I14],304 nM,102%,76.9%,"EC50 (Jurkat cells; Homo sapiens, Jurkat, 72 h): 263 nM"
O=C(O)c1cc(Cl)cc2[nH]c(-c3ccc(-c4ccccc4F)cc3)nc12 [I45],949 nM,92.2%,49.5%,–
O=C(O)c1cccc2[nH]c(-c3c(F)c(F)c(-c4ccc(F)cc4)c(F)c3F)nc12 [I133],808 nM,101%,54.7%,–
N#Cc1ccc(Oc2ccc(-c3ccc(-c4nc5c(C(=O)O)cccc5[nH]4)cc3)cc2)cc1 [I179],–,45.8%,10.1%,–
O=C(O)c1cc(Cl)cc2nc(-c3ccc(-c4ccccc4)cc3)[nH]c12 [I35],994 nM,92.9%,56.4%,"EC50 (Jurkat cells; Homo sapiens, Jurkat, 72 h): 746 nM"
Cc1cc(C(=O)O)c2[nH]c(-c3c(F)c(F)c(-c4ccc(O)cc4)c(F)c3F)nc2c1 [I96],16 nM,98.4%,102%,–
Cc1cc(C(=O)O)c2nc(-c3ccc(-c4ccc(CN5CCCC5)cc4)cc3)[nH]c2c1 [I164],–,59.3%,12.1%,–
Cc1cc(C(=O)O)c2nc(-c3c(F)c(F)c(-c4ccsc4)c(F)c3F)[nH]c2c1 [I139],50 nM,105%,94.9%,–
"Cc1cc(C(=O)O)c2[nH]c(-c3ccc(-c4c(F)cccc4F)cc3)nc2c1 [I76, 2-(2′,6′-Difluoro-biphenyl-4-yl)-6-methyl-3H-benzoimidazole-4-carboxylic acid]",344 nM,100%,83.5%,–
Cc1cc(C(=O)O)c2nc(-c3ccc(-c4cccc(NC(=O)C5CCCN5)c4)cc3)[nH]c2c1 (stereo not drawn) [I150],–,30.5%,15.4%,–
O=C(O)c1cccc2[nH]c(-c3ccc(-c4cccc(OCc5ccccc5)c4)cc3)nc12 [I118],1300 nM,84%,41.4%,–
Cc1nc(-c2ccc(-c3nc4cccc(C(=O)O)c4[nH]3)cc2)oc1C [I66],–,8.4%,–,–
Cc1ccc(-c2ccc(-c3nc4c(C(=O)O)cccc4[nH]3)cc2)cc1 [I12],–,9%,–,–
"COC(=O)c1cccc2nc(-c3ccc(-c4ccccc4)cc3)[nH]c12 [I79, 2-Biphenyl-4-yl-1H-benzoimidazole-4-carboxylic acid methyl ester]",–,5.3%,–,–
"Cc1cc(C(=O)O)c2nc(C#Cc3ccccc3)[nH]c2c1 [I84, 6-Methyl-2-phenylethynyl-1H-benzoimidazole-4-carboxylic acid]",–,59.5%,–,–
Cc1cc(C(=O)O)c2nc(-c3c(F)c(F)c(-c4ccccc4)c(F)c3F)n(C)c2c1 [I113],116 nM,95%,–,–
COc1cccc(-c2ccc(-c3nc4c(C(=O)O)cccc4[nH]3)c(F)c2)c1 [I4],–,–,–,inh @ 10 uM hDHODH (%) (DHODH): 2.1%
Cn1c(-c2ccc(-c3ccccc3)cc2)nc2c(C(=O)O)cccc21 [I7],–,30.2%,–,–
Cn1c(-c2ccc(-c3ccccc3)cc2)nc2cccc(C(=O)O)c21 [I8],1600 nM,90.5%,–,–
"Cc1cc(C(=O)O)c2nc(-c3ccc(N4CCCCCC4=O)cc3)[nH]c2c1 [I80, 6-Methyl-2-[4-(2-oxo-azepan-1-yl)-phenyl]-1H-benzoimidazole-4-carboxylic acid]",–,9.4%,–,–
Cc1cc(C(=O)O)c2nc(-c3ccc(-c4cnccn4)cc3)[nH]c2c1 [I147],8450 nM,44.3%,–,–

# Continued, in another order:
IC50 (DHODH),inhibition at 10 µM (DHODH),SMILES,inhibition at 1 µM (Jurkat cells; [1]),also measured
3100 nM,71%,Cc1cc(C(=O)O)c2[nH]c(-c3ccc(-c4ccc(OCCO)cc4)cc3)nc2c1 [I99],27.7%,–
–,23.3%,Cc1cc(C(=O)O)c2[nH]c(-c3cc4ccccc4[nH]3)nc2c1 [I40],3.7%,–
–,5.6%,FC(F)(F)c1cccc2[nH]c(-c3ccc(-c4ccccc4)cc3)nc12 [I43],–,–
–,82%,O=C(O)c1cc(F)cc2nc(-c3ccc(-c4ccc(F)cc4F)cc3F)[nH]c12 [I34],41.8%,–
15900 nM,53%,Nc1nnc(-c2cccc3[nH]c(-c4ccc(-c5ccccc5)cc4)nc23)s1 [I108],11%,–
276 nM,97.8%,O=C(O)c1cc(F)cc2[nH]c(-c3c(F)cc(-c4ccccc4)cc3F)nc12 [I68],78.4%,–
–,47.5%,O=C(O)c1cccc2[nH]c(-c3ccc(-c4ccc(OCc5ccccc5)cc4)cc3)nc12 [I190],16.5%,–
–,10.6%,O=C(O)c1cccc2[nH]c(-c3ccc(-c4ccc(C(F)(F)F)cc4)cc3)nc12 [I13],–,–
3.5 nM,100%,Cc1cc(C(=O)O)c2nc(-c3c(F)c(F)c(-c4ccccc4F)c(F)c3F)[nH]c2c1 [I140],101%,"EC50 (Jurkat cells; Homo sapiens, Jurkat, 72 h): 33 nM"
368 nM,–,COc1cccc(-c2ccc(-c3nc4c(C(=O)O)cccc4[nH]3)c(F)c2)c1 [I5],–,inh @ 10 uM hDHODH (%) (DHODH): 94.3%; EC50 (Jurkat cells; 72 hrs): 356 nM
–,46%,Cc1cc(-c2nnc(O)o2)c2nc(-c3ccc(-c4ccccc4)cc3)[nH]c2c1 [I165],29.7%,–
177 nM,100%,Cc1cc(C(=O)O)c2nc(-c3c(F)cc(-c4ccccc4)cc3F)[nH]c2c1 [I48],88.1%,"EC50 (Jurkat cells; Homo sapiens, Jurkat, 72 h): 393 nM"
2320 nM,–,O=C(O)c1cc(Cl)cc2c1N=C(c1ccc(-c3ccccc3)cc1)C2 [I51],–,inh @ 10 uM hDHODH (%) (DHODH): 86.4%; % inh Jurkat_cells @ 1 uM (%) (Jurkat cells; compound at 1 uM): 39.5%
4950 nM,66.1%,O=C(O)c1cccc2[nH]c(-c3ccc(OCc4ccccc4)cc3)nc12 [I2],–,–
–,56.6%,"Cc1cc(C(=O)O)c2[nH]c(-c3ccc(-c4ccccn4)cc3)nc2c1 [I74, 6-Methyl-2-(4-pyridin-2-yl-phenyl)-3H-benzoimidazole-4-carboxylic acid]",18.4%,–
–,7.1%,Cc1cc(C(=O)O)c2[nH]c(-c3c[nH]c4ccccc34)nc2c1 [I42],–,–
–,8.4%,O=C(O)c1cccc2nc(-c3ccc(N4CCOCC4)cc3)[nH]c12 [I62],–,–

# — patent US9006454B2, “Dihydroorotate dehydrogenase inhibitors” (Merck Serono S.A., priority 2009, dated 2015)
